In patent US9511134B2, “Inducing immune responses to influenza virus using polypeptide and nucleic acid compositions” (priority 2006, dated 2016):
Like-named read-outs stand apart in the source and are kept apart here. Where no end group is shown, it is not given here.

Key:
Experiment in all cases: biochemical
Format in all cases: binding
[1] = molecular target: DRB1*1302 (Homo sapiens, UniProt P01903+P01911, A100E/A169T/K41T/L162R/M171V/P40S/Q125H/Q178H/Q39Y/Q99D/R42S/S66N/T262R/V115G/W38E/Y61H); details: read-out: IC50 nM to purified HLA DRB1*1302
Sequence of DRB1*1302 (P01903 26-254 limits assumed, other chains not shown): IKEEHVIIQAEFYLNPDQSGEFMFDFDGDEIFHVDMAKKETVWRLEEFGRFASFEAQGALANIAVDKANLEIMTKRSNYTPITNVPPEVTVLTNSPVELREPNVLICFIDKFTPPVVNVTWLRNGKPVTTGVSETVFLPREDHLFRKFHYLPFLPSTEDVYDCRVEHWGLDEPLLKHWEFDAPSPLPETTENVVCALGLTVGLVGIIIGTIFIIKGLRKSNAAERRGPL

[2] = molecular target: T1, DRB1*0401 (Homo sapiens, UniProt P01903+P01911, A100K/A169T/F76Y/I96L/K127E/L162R/M171V/N62H/P40V/Q125Y/R42H/S133A/S149N/S66Y/V115G/V209L/W38E); details: read-out: IC50 nM to purified HLA DRB1*0401
T1 construct: made in house; host or cells: EBV-transformed homozygous human B cell lines, transfected fibroblasts or single-allele 721.221 transfectants

[3] = molecular target: T2, DRB1*0101 (Homo sapiens, UniProt P01903+P01911, A100R/D57E/F55L/F60I/F76Y/I96L/L162R/M171V/P40L/Q125E/R42F/V115G/Y59C); details: IC50 nM to purified HLA DRB1*0101
T2 construct: made in house; host or cells: EBV-transformed homozygous human B cell lines, transfected fibroblasts or single-allele 721.221 transfectants

[4] = molecular target: DRB1*0405 (Homo sapiens, UniProt P01903+P01911, A100R/A169T/D86S/F76Y/I96L/K127E/L162R/M171V/N62H/P40V/Q125Y/R42H/S133A/S149N/S66Y/V115G/V209L/W38E); details: read-out: IC50 nM to purified HLA DRB1*0405
[5] = molecular target: T3, DRB5*0101 (Homo sapiens, UniProt P01903+Q30154)
T3 construct: made in house; host or cells: EBV-transformed homozygous human B cell lines, transfected fibroblasts or single-allele 721.221 transfectants

[6] = molecular target: DRB1*1101 (Homo sapiens, UniProt P01903+P01911, A100R/A169T/A87E/I96F/K41T/L162R/M171V/P40S/Q125H/Q178H/Q39Y/Q99D/R42S/S66Y/T262R/V115G/W38E); details: read-out: IC50 nM to purified HLA DRB1*1101
Sequence of DRB1*1101 (P01903 26-254 limits assumed, other chains not shown): as above

[7] = molecular target: DRB1*0404 (Homo sapiens, UniProt P01903+P01911, A100R/A169T/F76Y/I96L/K127E/L162R/M171V/N62H/P40V/Q125Y/R42H/S133A/S149N/S66Y/V209L/W38E); details: IC50 nM to purified HLA DRB1*0404
[8] = molecular target: T4, DRB1*0301 (Homo sapiens, UniProt P01903+P01911, A100K/A102G/A103R/A169T/F55Y/I96L/K41T/L162R/M171V/P40S/Q125H/Q178H/Q39Y/R42S/S66N/T106N/T262R/W38E/Y61H)
T4 construct: made in house; host or cells: EBV-transformed homozygous human B cell lines, transfected fibroblasts or single-allele 721.221 transfectants
T4 sequence (P01903 26-254, other chains not shown): as the sequence (P01903 26-254 limits assumed, other chains not shown) above

[9] = molecular target: T5, DRB4*0101 (Homo sapiens, UniProt P01903+P13762, G164S); details: IC50 nM to purified HLA DRB4*0101
T5 construct: made in house; host or cells: EBV-transformed homozygous human B cell lines, transfected fibroblasts or single-allele 721.221 transfectants

[10] = molecular target: T6, DRB1*1501 (Homo sapiens, UniProt P01903+P01911); details: read-out: IC50 nM to purified HLA DRB1*1501
T6 construct: made in house; host or cells: EBV-transformed homozygous human B cell lines, transfected fibroblasts or single-allele 721.221 transfectants

| Molecule | IC50 [1] [nM] | IC50 [2] [nM] | IC50 [3] [nM] | IC50 [4] [nM] | IC50 [5] [nM] | IC50 [6] [nM] | IC50 [7] [nM] | IC50 [8] [nM] | IC50 [9] [nM] | IC50 [10] [nM] | IC50 ([5]; read-out: IC50 nM to purified HLA DRB5*0101) [nM] |
| --- | --- | --- | --- | --- | --- | --- | --- | --- | --- | --- | --- |
| MVAYMLERELVRKTR [Flu.PB2.205] | 2080 | 166 | 97 | 5540 | – | – | – | – | – | – | – |
| CC[C@H](C)[C@H](NC(=O)[C@H](CCSC)NC(=O)[C@H](CO)NC(=O)[C@@H](N)CCC(=O)O)C(=O)N[C@@H](CCC(=O)O)C(=O)N[C@@H](C)C(=O)N[C@@H](CCC(=O)O)C(=O)N[C@@H](CO)C(=O)N[C@@H](CO)C(=O)N[C@H](C(=O)N[C@@H](CCCCN)C(=O)N[C@@H](CCC(=O)O)C(=O)N[C@@H](CCCCN)C(=O)N[C@@H](CC(=O)O)C(=O)N[C@@H](CCSC)C(=O)O)C(C)C [Flu.PA.596] | – | – | – | 72 | 600 | 12000 | 121 | – | – | – | – |
| CC[C@H](C)[C@H](NC(=O)[C@H](CC(C)C)NC(=O)[C@H](CS)NC(=O)[C@H](CCC(=O)O)NC(=O)[C@@H](N)CCC(=O)O)C(=O)N[C@@H](CC(N)=O)C(=O)N[C@@H](CC(=O)O)C(=O)N1CCC[C@H]1C(=O)N[C@@H](Cc1c[nH]c2ccccc12)C(=O)N[C@H](C(=O)N[C@@H](CC(C)C)C(=O)N[C@@H](CC(C)C)C(=O)N[C@@H](CC(N)=O)C(=O)N[C@@H](C)C(=O)N[C@@H](CO)C(=O)O)C(C)C [Flu.PA.694] | – | – | 34 | 15000 | – | – | 183 | 618 | – | – | – |
| ALQLLFEVEQEIRTF [Flu.NS2.178] | – | – | 3490 | 8870 | – | – | 2150 | – | – | – | – |
| CC[C@H](C)[C@H](NC(=O)[C@H](CO)NC(=O)[C@H](CCC(N)=O)NC(=O)[C@H](CCC(=O)O)NC(=O)[C@H](CC(=O)O)NC(=O)[C@H](CCCNC(=N)N)NC(=O)CNC(=O)[C@H](CO)NC(=O)[C@@H](NC(=O)[C@@H](NC(=O)[C@H](CC(C)C)NC(=O)[C@H](CCC(N)=O)NC(=O)[C@@H](NC(=O)[C@@H](N)CC(C)C)[C@@H](C)CC)[C@@H](C)CC)C(C)C)C(=O)N[C@@H](C)C(=O)O [Flu.PB2.384] | 4680 | 83 | 3230 | 460 | – | 2010 | 90 | 53 | 9.9 | 420 | – |
| CC[C@H](C)[C@H](NC(=O)CNC(=O)[C@@H](N)CCCNC(=N)N)C(=O)N[C@@H](CC(C)C)C(=O)N[C@@H](CCC(=O)O)C(=O)N[C@@H](CC(=O)O)C(=O)N[C@@H](CCC(=O)O)C(=O)N[C@@H](CCC(N)=O)C(=O)N[C@@H](CCSC)C(=O)N[C@@H](Cc1ccc(O)cc1)C(=O)N[C@@H](CCC(N)=O)C(=O)N[C@@H](CCCCN)C(=O)N[C@@H](CS)C(=O)N[C@@H](CS)C(=O)N[C@@H](CC(N)=O)C(=O)O [Flu.PB1.683] | 18000 | 5740 | – | 3280 | – | – | – | 43 | – | – | – |
| CC[C@H](C)[C@H](NC(=O)[C@H](CC(N)=O)NC(=O)[C@H](Cc1ccc(O)cc1)NC(=O)[C@H](CC(C)C)NC(=O)[C@H](CC(N)=O)NC(=O)[C@@H]1CCCN1)C(=O)N[C@@H](CCCNC(=N)N)C(=O)N[C@@H](CC(N)=O)C(=O)N[C@@H](CC(C)C)C(=O)N[C@@H](Cc1c[nH]cn1)C(=O)N[C@H](C(=O)N1CCC[C@H]1C(=O)N[C@@H](CCC(=O)O)C(=O)N[C@H](C(=O)N[C@@H](CS)C(=O)O)C(C)C)[C@@H](C)CC [Flu.PB1.599] | – | – | – | – | – | – | – | – | – | – | 2310 |
| LILYDKEEIRRIWRQ [Flu.NP.111] | 3100 | – | 7180 | 7500 | – | – | 262 | 22 | – | – | – |
| CC[C@H](C)[C@H](NC(=O)[C@H](CCSC)NC(=O)[C@@H]1CCCN1C(=O)[C@H](CC(N)=O)NC(=O)[C@@H](N)Cc1ccccc1)C(=O)N[C@H](C(=O)N[C@@H](CCC(=O)O)C(=O)N[C@@H](CC(C)C)C(=O)N[C@@H](C)C(=O)N[C@@H](CCC(=O)O)C(=O)N[C@@H](CCCCN)C(=O)N[C@H](C(=O)N[C@@H](CCSC)C(=O)N[C@@H](CCCCN)C(=O)N[C@@H](CCC(=O)O)C(=O)O)[C@@H](C)O)C(C)C [Flu.PA.12] | 1250 | 29 | 48 | 1240 | – | – | 610 | 744 | – | – | – |
| CC(C)[C@H](NC(=O)[C@H](CCC(=O)O)NC(=O)[C@H](C)NC(=O)[C@@H](NC(=O)[C@H](Cc1ccccc1)NC(=O)[C@H](Cc1ccc(O)cc1)NC(=O)[C@H](CC(N)=O)NC(=O)[C@@H](N)CCCNC(=N)N)[C@@H](C)O)C(=O)N[C@@H](CO)C(=O)N[C@@H](Cc1c[nH]cn1)C(=O)N[C@@H](CS)C(=O)N[C@@H](CCCNC(=N)N)C(=O)N[C@@H](C)C(=O)N[C@H](C(=O)N[C@@H](CCC(=O)O)C(=O)O)[C@@H](C)O [Flu.PA.446] | – | 45 | 627 | 5720 | – | – | 7600 | 883 | – | – | – |
| CC[C@H](C)[C@H](NC(=O)[C@H](CCSC)NC(=O)[C@H](CS)NC(=O)[C@H](CC(=O)O)NC(=O)[C@H](CCC(=O)O)NC(=O)[C@H](CCC(N)=O)NC(=O)[C@H](CO)NC(=O)[C@H](Cc1ccccc1)NC(=O)[C@@H](NC(=O)[C@H](CCSC)NC(=O)[C@H](C)N)C(C)C)C(=O)N[C@@H](CCCCN)C(=O)N[C@@H](C)C(=O)N[C@H](C(=O)N[C@@H](CCCNC(=N)N)C(=O)O)C(C)C [Flu.PB2.404] | 9200 | 3280 | 11000 | 6780 | – | – | 336 | 718 | – | – | – |
| CC[C@H](C)[C@H](NC(=O)[C@H](CCC(=O)O)NC(=O)[C@H](CCC(N)=O)NC(=O)[C@H](CCC(=O)O)NC(=O)[C@@H](NC(=O)[C@H](CCC(=O)O)NC(=O)[C@H](CC(C)C)NC(=O)[C@H](CC(C)C)NC(=O)[C@H](CC(C)C)NC(=O)[C@@H](N)CCC(N)=O)C(C)C)C(=O)N[C@@H](CCCNC(=N)N)C(=O)N[C@H](C(=O)N[C@@H](Cc1ccccc1)C(=O)N[C@@H](CO)C(=O)N[C@@H](Cc1ccccc1)C(=O)O)[C@@H](C)O [Flu.NS2.180] | – | 13900 | 11900 | 5140 | – | – | 1600 | 792 | – | – | – |
| CC[C@H](C)[C@H](NC(=O)CNC(=O)[C@H](CCCNC(=N)N)NC(=O)[C@@H](N)CCC(N)=O)C(=O)N[C@@H](CC(C)C)C(=O)N[C@@H](CCC(=O)O)C(=O)N[C@@H](CC(=O)O)C(=O)N[C@@H](CCC(=O)O)C(=O)N[C@@H](CCC(N)=O)C(=O)N[C@@H](CCSC)C(=O)N[C@@H](Cc1ccc(O)cc1)C(=O)N[C@@H](CCC(N)=O)C(=O)N[C@@H](CCCCN)C(=O)N[C@@H](CS)C(=O)N[C@@H](CS)C(=O)O [Flu.PB1.682] | – | 2560 | 433 | 700 | – | – | 3270 | 34 | – | – | – |
| CC[C@H](C)[C@H](NC(=O)[C@H](CCC(=O)O)NC(=O)[C@H](Cc1ccccc1)NC(=O)[C@@H](N)CCCNC(=N)N)C(=O)N[C@H](C(=O)NCC(=O)N[C@H](C(=O)N[C@@H](CCSC)C(=O)N[C@@H](CCCNC(=N)N)C(=O)N[C@@H](CCCNC(=N)N)C(=O)N[C@@H](CC(C)C)C(=O)N[C@@H](C)C(=O)N[C@@H](CC(=O)O)C(=O)N[C@@H](CCC(N)=O)C(=O)N[C@@H](CO)C(=O)O)[C@@H](C)O)[C@@H](C)O [Flu.PA.207] | – | – | – | – | 9.2 | 19 | – | – | – | – | – |
| CC[C@H](C)[C@H](NC(=O)[C@H](CO)NC(=O)[C@@H](NC(=O)[C@@H](NC(=O)[C@@H](NC(=O)[C@@H](N)CCCNC(=N)N)C(C)C)C(C)C)C(C)C)C(=O)N[C@@H](CC(=O)O)C(=O)N[C@@H](CCCNC(=N)N)C(=O)N[C@@H](Cc1ccccc1)C(=O)N[C@@H](CC(C)C)C(=O)N[C@@H](CCCNC(=N)N)C(=O)N[C@H](C(=O)N[C@@H](CCCNC(=N)N)C(=O)N[C@@H](CC(=O)O)C(=O)N[C@@H](CCC(N)=O)C(=O)O)C(C)C [Flu.PB2.496] | 8.1 | 111 | – | 2050 | – | – | 400 | 67 | – | – | – |
